Test results reported in US20050014696A1, “Additive cytoprotective effects of two bioactive regions of pro-opiomelanocortin hormone” (priority 2001, published 2005).

Test system: 96% ethanol induced gastric lesions
Test: 96% ethanol induced gastric lesions cytoprotection model
Assay type: in vivo, male Wistar rats
Settings: 8 animals, mean±standard deviation, saline control 255.5±78.1, p<0.05 compared to controls
Method: Bioactive peptide fragments SYSMEHFRWGKPV and YGGFM were tested individually and in combination, by means of the standard cytoprotection model of the 96% ethanol induced gastric lesions in male Wistar rats (6, 7). In the control group of 8 animals treated with physiological saline the area of gastric lesions was 255.5±78.1 mm^2 (mean±standard deviation, FIG. 1) (7). In the group of 8 animals treated with the combination of peptides SYSMEHFRWGKPV (1 mg/kg) and YGGFM (10 mg/kg) the area of gastric lesions was 0.3±0.7 mm^2 (p<0.05 compared to controls, FIG. 1) (7). In the group of 8 animals treated with peptide SYSMEHFRWGKPV (1 mg/kg) the area of gastric lesions was 5.9±8 mm^2 (p<0.05 compared to controls, FIG. 1) (7). In the group of 8 animals treated with peptide YGGFM (10 mg/kg) the area of gastric lesions was 139.4±36.1 mm^2 (p<0.05 compared to controls, FIG. 1) (7). The combination of peptides SYSMEHFRWGKPV and YGGFM that provided best cytoprotective effect is patented under the name KOMET.
FIG. 1 defines the cytoprotective effects of the bioactive peptide fragments SYSMEHFRWGKPV and YGGFM of the pro-opiomelanocortin molecule, and their combination KOMET, in the model of the ethanol induced gastric lesions in rats.
FIG. 1. […]

Row | Substance | area of gastric lesions (1 mg/kg) | area of gastric lesions (10 mg/kg)
1 | SYSMEHFRWGKPV | 5.9±8 mm^2 | –
2 | YGGFM | – | 139.4±36.1 mm^2
